From publication PMC12867150, “A fungi-derived cyclic peptide enhances Th9-mediated antitumor immunity by targeting ZAP70 and SREBP1” (The Journal of Clinical Investigation, 2025)
Where “and” joins values, the source holds several entries; their conditions need not be identical. Equal values may be shown once.

Assays:
Format in all cases: cell-based, mouse
[1] = system: Th9 cells; experiment: Th9 differentiation, dose response, IL-9+ cells by flow cytometry (Figure 1D); parameters: IL-9+ Th9 differentiation: unit not given here; conditions: for IL-9+ Th9 differentiation: flow cytometry, individual replicates, n = 6
Experimental: IL-9 expression peaked at 10 μM, which was used for all subsequent experiments (Figure 1D).
(§1) Naive CD4^+ T cells were isolated from the spleens of C57BL/6J or CD45.1^+ OT-II mice using the MojoSort Mouse CD4 Naive T Cell Isolation Kit (BioLegend, catalog 480040), following the manufacturer’s protocol. Purified cells were cultured in RPMI-1640 medium supplemented with 10% FBS, 1% penicillin-streptomycin, and 0.1% β-mercaptoethanol (Gibco, catalog 21985023).
(§2) T cell polarization was initiated under plate-bound anti-CD3 (2 μg/mL, clone 17A2, BioXCell, catalog BE0002) and soluble anti-CD28 (1 μg/mL, clone 37.51, BioXCell, catalog BE0015-1) stimulation, with the addition of cytokines and neutralizing antibodies specific to each subset. For Th9 cells, these included IL-4 (10 ng/mL, Peprotech, catalog 400-04), TGF-β (1 ng/mL, EPOTO Biotech, catalog HF-2021), anti–IL-12 (5 μg/mL, clone C17.8, BioXCell, catalog BE0051), and anti–IFN-γ (10 μg/mL, clone XMG1.2, BioXCell, catalog BE0055); for Th1 cells, these included IL-12 (10 ng/mL, GenScript, catalog Z03211-50) and anti–IL-4 (5 μg/mL, clone 11B11, BioXCell, catalog BE0045); for Th2 cells, these included IL-4 (50 ng/mL), anti–IFN-γ (20 μg /mL), anti–IL-12 (5 μg/mL), Th17 cells: IL-6 (20 ng/mL, EPOTO Biotech, catalog MF-1006), TGF-β (1 ng/mL), IL-1β (10 ng/mL, Peprotech, catalog AF-211-11B), anti–IFN-γ (10 μg/mL), anti–IL-12 (5 μg/mL), and anti–IL-4 (5 μg/mL); and for Tregs, these included TGF-β (3 ng/mL). After 3 days of initial culture, cells were either collected for downstream assays or continued in extended culture with refreshed cytokines to maintain lineage commitment.
During the entire culture period, experimental groups were treated continuously with the indicated compound at the designated concentration, whereas control groups received an equal volume of DMSO.
BioLegend, Cat. No. 422301 or Mouse TruStain FcX™, BioLegend, Cat. No. 101319) for 10 minutes at 4°C. For surface marker detection, cells were stained with fluorochrome-conjugated monoclonal antibodies in 96-well V-bottom plates and incubated on ice for 30 minutes. After staining, cells were washed twice and resuspended in FACS buffer for analysis.
Prior to intracellular cytokine staining, cells were restimulated for 4 hours with PMA (Absin, Cat. No. abs9107), ionomycin (Sigma-Aldrich, Cat. No. I0634), and brefeldin A (MedChemExpress, Cat. No. HY-16592). For intracellular cytokine staining, cells were first surface-stained as described above, then fixed and permeabilized using the BD Cytofix/Cytoperm™ kit (BD Biosciences, Cat. No. 554714) according to the manufacturer ’s protocol. Intracellular proteins were stained with directly conjugated antibodies targeting IL-9, IL-17a, IL-4, IFN-γ, TNF-α, FOXP3, p-ZAP70, Perforin, and […]

[2] = system: Th0 cells; experiment: Th0 polarization, IFN-γ by flow cytometry (Figure 1E)
Experimental: as §1
as §2, with “After 3 days of initial culture, cells were either collected for downstream assays or continued in extended culture with refreshed cytokines to maintain lineage commitment.” left out

[3] = system: Th9 cells; experiment: IL-9+ Th9 cells with oleic acid (S8I-J); conditions: representative flow plot, Figure S8I; EpA 10 μM, OA 50 μM
Excerpt: LXR-α binding site ChREBP binding site USF1 binding site […] 2.1 1.8 2.1 […] 1.9 […] 20 20 0 […] + OA ✱✱✱✱ MIGR1 M Ctrl + OAEpA […] SREBP1 Ctrl SREBP1EpA ✱✱✱✱ ✱✱✱ 3 2 1 0 TNF-α MIGR1 SREBP1 […] SREBP1EpA Figure S8. EpA-associated modulation of lipid metabolism and its impact on Figure S8 Th9 cell function. (A-C) GSEA of RNA-seq data showing intracellular sterol transport (A), sterol transfer activity (B), and long-chain fatty acid transport (C) pathways in control and EpA-treated Th9 cells. […] (K and L) Flow-cytometric analysis of IL-9 expression in Th9 cells transduced with either control (MIGR1) or SREBP1- […]

Substance: anteiso-C15 Leu7 surfactin [EpA]
- IL-9+ Th9 differentiation ([1]; EpA 1 μM): 49.4 and 48.8 and 36.1 and 37.3 and 36.5 and 50.3
- IL-9+ Th9 differentiation ([1]; EpA 10 μM): 82.5 and 80.4 and 79.9 and 77.4 (2×) and 76.3
- IL-9+ Th9 differentiation ([1]; EpA 20 μM): 52.4 and 52.2 and 48.1 and 34.8 and 36 and 37.3
- concentration at which IL-9 expression peaked ([1]; increasing concentrations of EpA): 10 µM
- IFN-γ expression under Th0 polarization ([2]; EpA 10 μM, individual replicates, n = 4): 31 and 32.2 and 35 and 26.8
- effect on Th0 polarization ([2]; result in words): did not affect
- IL-9 gate number [3]: 77.2
